Experiments:
[1] = system: RNA 1 (RNA, riboswitch) GGCUGCUUGUCCUUUAAUGGUCCAGUC; test: native ESI MS; details: 9:1 H2O/CH3OH, 0.25 mM piperazine
[2] = system: RNA 1 (RNA, riboswitch) GGCUGCUUGUCCUUUAAUGGUCCAGUC; test: ITC; details: K+ 100 mM (KCl), Mg2+ 2 mM (MgCl2); 50 mM MOPS, pH 7.5, 21 °C; two-site fit, site 1 of 2
[3] = system: RNA 4 (RNA, riboswitch) CCCUGAUAGCUUGUCCUUUAAUGGUCCUAUCUGGAAAAUG; test: competitive native ESI MS; details: NH4+ 50 mM (ammonium bicarbonate); 9:1 H2O/CH3OH, 0.25 mM piperazine, pH ~7.5, 21 °C; RNA 1 as competing reference; overall, motifs A and B
[4] = system: RNA 3 (RNA, riboswitch) CCGUCAUAGCUUGUCCUUUAAUGGUCCUAUGACGAAAAUG; test: competitive native ESI MS; details: NH4+ 50 mM (ammonium bicarbonate); 9:1 H2O/CH3OH, 0.25 mM piperazine, pH ~7.5, 21 °C; RNA 1 as competing reference; overall, motifs A and B
[5] = system: RNA 2 (RNA, riboswitch) CCGGCAUAGCUUGUCCUUUAAUGGUCCUAUGUCGAAAAUG; test: ITC; details: K+ 100 mM (KCl), Mg2+ 2 mM (MgCl2); 50 mM MOPS, pH 7.5, 21 °C; two-site fit, site 1 of 2
[6] = system: RNA 2 (RNA, riboswitch) CCGGCAUAGCUUGUCCUUUAAUGGUCCUAUGUCGAAAAUG; test: competitive native ESI MS; details: NH4+ 50 mM (ammonium bicarbonate); 9:1 H2O/CH3OH, 0.25 mM piperazine, pH ~7.5, 21 °C; RNA 1 as competing reference; overall, motifs A and B

Compound	KD ([1]; none added, pH ~6, room temperature, 1 μM RNA, 10 μM paromomycin)	KD [2]	KD [3]	KD [4]	KD [5]	KD [6]	KD ([1]; NH4+ 50 mM (ammonium bicarbonate), pH 7.5, 21 °C, single-site model)
NC[C@@H]1O[C@H](O[C@H]2[C@@H](O)[C@H](O[C@@H]3[C@@H](O)[C@H](N)C[C@H](N)[C@H]3O[C@H]3O[C@H](CO)[C@@H](O)[C@H](O)[C@H]3N)O[C@@H]2CO)[C@H](N)[C@@H](O)[C@@H]1O	4600 ± 1400 nM	–	–	–	–	–	–
NC[C@@H]1O[C@H](O[C@H]2[C@@H](O)[C@H](O[C@@H]3[C@@H](O)[C@H](N)C[C@H](N)[C@H]3O[C@H]3O[C@H](CN)[C@@H](O)[C@H](O)[C@H]3N)O[C@@H]2CO)[C@H](N)[C@@H](O)[C@@H]1O	–	2 ± 2 nM	500 ± 200 nM	500 ± 200 nM	400 ± 600 nM	500 ± 200 nM	700 ± 200 nM
